{"source": "patent US20040247626A1", "about": "“Stable aqueous dispersion of 1, 2-benzisothiazoline-3-one (bit)” (priority 2004, published 2004)", "origin": "cited, not measured here"}
{"smiles": "O=c1[nH]sc2ccccc12", "note": "[BIT, 1,2-benzisothiazolin-3-one]", "values": [{"measurement": "solubility in water", "result": "sparingly soluble"}]}
